Test results taken from PubChem BioAssay AID330 (DTP/NCI, 2004).
Where “and” joins values, the source holds several entries; their conditions need not be identical. Equal entries are not always repeated. Inconclusive results and toxic doses are left out.

Test system: P388 leukemia ip, CD2F1 mice, survival T/C
Assay: NCI In Vivo Anticancer Drug Screen. Data for tumor model P388 Leukemia (intraperitoneal) in CD2F1 (CDF1) mice
Conditions: endpoint: median survival time, higher = longer survival
How it was run: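 Mice carrying the transplanted tumor received test compound or vehicle. Survival was recorded in each group, and the value is the treated-group measurement divided by that of the vehicle-treated control group.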

[1] = dose: 25.0 mg/kg/injection, schedule: Q01DX009 (ip), vehicle: saline
[2] = dose: 50.0 mg/kg/injection, schedule: Q01DX009 (ip), vehicle: saline
[3] = dose: 100.0 mg/kg/injection, schedule: Q01DX009 (ip), vehicle: saline
[4] = dose: 200.0 mg/kg/injection, schedule: Q01DX009 (ip), vehicle: saline
[5] = dose: 400.0 mg/kg/injection, schedule: Q01DX009 (ip), vehicle: saline
[6] = dose: 60.0 mg/kg/injection, schedule: Q01DX005 (ip), vehicle: saline with Tween-80
[7] = dose: 120.0 mg/kg/injection, schedule: Q01DX005 (ip), vehicle: saline with Tween-80
[8] = dose: 100.0 mg/kg/injection, schedule: Q04DX002 (ip), vehicle: saline with Tween-80
[9] = dose: 200.0 mg/kg/injection, schedule: Q04DX002 (ip), vehicle: saline with Tween-80
[10] = dose: 50.0 mg/kg/injection, schedule: Q01DX005 (ip), vehicle: saline with Tween-80
[11] = dose: 100.0 mg/kg/injection, schedule: Q01DX005 (ip), vehicle: saline with Tween-80
[12] = dose: 200.0 mg/kg/injection, schedule: Q01DX005 (ip), vehicle: saline with Tween-80
[13] = dose: 50.0 mg/kg/injection, schedule: Q01DX005 (ip), vehicle: Klucel (hydroxypropylcellulose) (HPC)
[14] = dose: 100.0 mg/kg/injection, schedule: Q01DX005 (ip), vehicle: Klucel (hydroxypropylcellulose) (HPC)
[15] = dose: 200.0 mg/kg/injection, schedule: Q01DX005 (ip), vehicle: Klucel (hydroxypropylcellulose) (HPC)
[16] = dose: 50.0 mg/kg/injection, schedule: Q01DX009 (ip), vehicle: saline with Tween-80
[17] = dose: 100.0 mg/kg/injection, schedule: Q01DX009 (ip), vehicle: saline with Tween-80
[18] = dose: 200.0 mg/kg/injection, schedule: Q01DX009 (ip), vehicle: saline with Tween-80
[19] = dose: 100.0 mg/kg/injection, schedule: Q04DX003 (ip), vehicle: saline with Tween-80
[20] = dose: 200.0 mg/kg/injection, schedule: Q04DX003 (ip), vehicle: saline with Tween-80
[21] = dose: 400.0 mg/kg/injection, schedule: Q04DX003 (ip), vehicle: saline with Tween-80

SMILES: CC(=O)NCCCCCCNC(C)=O
- T/C [1]: 100 % of control and 111 % of control and 97 % of control
- T/C (dose: 31.0 mg/kg/injection, schedule: Q03HX008 (ip), vehicle: saline): 101 % of control
- T/C (dose: 41.7 mg/kg/injection, schedule: Q03HX024 (ip), vehicle: saline): 105 % of control
- T/C [2]: 100 % of control and 103 % of control and 119 % of control
- T/C (dose: 62.5 mg/kg/injection, schedule: Q03HX008 (ip), vehicle: saline): 103 % of control
- T/C (dose: 83.0 mg/kg/injection, schedule: Q03HX024 (ip), vehicle: saline): 107 % of control
- T/C [3]: 103 % of control and 104 % of control
- T/C (dose: 125.0 mg/kg/injection, schedule: Q03HX008 (ip), vehicle: saline): 103 % of control
- T/C (dose: 166.7 mg/kg/injection, schedule: Q03HX024 (ip), vehicle: saline): 110 % of control
- T/C [4]: 100 % of control and 105 % of control and 117 % of control
- T/C (dose: 250.0 mg/kg/injection, schedule: Q01DX001 (ip), vehicle: saline): 99 % of control
- T/C (dose: 250.0 mg/kg/injection, schedule: Q03HX008 (ip), vehicle: saline): 106 % of control
- T/C (dose: 333.0 mg/kg/injection, schedule: Q03HX024 (ip), vehicle: saline): 110 % of control
- T/C (dose: 333.0 mg/kg/injection, schedule: Q04DX003 (ip), vehicle: saline): 101 % of control
- T/C [5]: 100 % of control and 105 % of control and 111 % of control
- T/C (dose: 500.0 mg/kg/injection, schedule: Q01DX001 (ip), vehicle: saline): 99 % of control
- T/C (dose: 500.0 mg/kg/injection, schedule: Q03HX008 (ip), vehicle: saline): 113 % of control
- T/C (dose: 500.0 mg/kg/injection, schedule: Q03HX024 (ip), vehicle: saline): 111 % of control
- T/C (dose: 666.7 mg/kg/injection, schedule: Q04DX003 (ip), vehicle: saline): 108 % of control
- T/C (dose: 800.0 mg/kg/injection, schedule: Q01DX009 (ip), vehicle: saline): 101 % of control and 108 % of control and 114 % of control
- T/C (dose: 1000.0 mg/kg/injection, schedule: Q01DX001 (ip), vehicle: saline): 101 % of control
- T/C (dose: 1000.0 mg/kg/injection, schedule: Q03HX008 (ip), vehicle: saline): 107 % of control
- T/C (dose: 1333.0 mg/kg/injection, schedule: Q04DX003 (ip), vehicle: saline): 106 % of control
- T/C (dose: 2000.0 mg/kg/injection, schedule: Q01DX001 (ip), vehicle: saline): 103 % of control
- T/C (dose: 2666.0 mg/kg/injection, schedule: Q04DX003 (ip), vehicle: saline): 105 % of control

SMILES: CC(=O)C(=Cc1ccc(C=C(C(C)=O)C(C)=O)cc1)C(C)=O
- T/C [6]: 114 % of control
- T/C [7]: 111 % of control

SMILES: Cc1ccc2nccnc2c1
- T/C [2]: 101 % of control
- T/C [3]: 99 % of control
- T/C [4]: 101 % of control
- T/C [5]: 100 % of control

SMILES: FC(F)(F)COP1OCCS1 (configuration not stated)
- T/C (dose: 12.5 mg/kg/injection, schedule: Q04DX002 (ip), vehicle: saline with Tween-80): 99 % of control
- T/C (dose: 25.0 mg/kg/injection, schedule: Q04DX002 (ip), vehicle: saline with Tween-80): 99 % of control
- T/C (dose: 50.0 mg/kg/injection, schedule: Q04DX002 (ip), vehicle: saline with Tween-80): 98 % of control
- T/C [8]: 100 % of control
- T/C [9]: 104 % of control

SMILES: CCCC(O)C(NC(=O)CCl)C(=O)O (configuration not stated)
- T/C (dose: 12.5 mg/kg/injection, schedule: Q01DX009 (ip), vehicle: saline): 105 % of control and 97 % of control
- T/C [1]: 100 % of control
- T/C [2]: 104 % of control and 88 % of control
- T/C [3]: 91 % of control
- T/C [4]: 86 % of control

SMILES: COC(=O)/C=C1\C2OC(C1C(=O)OC)C(O)C2O (configuration not stated)
- T/C [10]: 100 % of control
- T/C [11]: 97 % of control
- T/C [12]: 90 % of control

SMILES: C/C(=N\NC(=S)N1CCCC1)c1cnccn1
- T/C (dose: 6.25 mg/kg/injection, schedule: Q01DX005 (ip), vehicle: saline with Tween-80): 100 % of control
- T/C (dose: 12.5 mg/kg/injection, schedule: Q01DX005 (ip), vehicle: saline with Tween-80): 103 % of control
- T/C (dose: 25.0 mg/kg/injection, schedule: Q01DX005 (ip), vehicle: saline with Tween-80): 100 % of control

SMILES: COc1ccc(C(O)c2cc(C(F)(F)F)cc(C(F)(F)F)c2)cc1OC (configuration not stated)
- T/C [13]: 100 % of control
- T/C [14]: 92 % of control
- T/C [15]: 91 % of control

SMILES: Nc1n[nH]c(-c2ccccc2)n1
- T/C [16]: 117 % of control
- T/C [17]: 101 % of control

SMILES: CC1(c2ccccc2)NC(=O)NC1=O (configuration not stated)
- T/C (dose: 50.0 mg/kg/injection, schedule: Q01DX001 (ip), vehicle: saline): 100 % of control
- T/C (dose: 100.0 mg/kg/injection, schedule: Q01DX001 (ip), vehicle: saline): 110 % of control
- T/C (dose: 200.0 mg/kg/injection, schedule: Q01DX001 (ip), vehicle: saline): 115 % of control

SMILES: Cc1cc(C)c([N+](=O)[O-])c([N+](=O)[O-])c1C
- T/C [16]: 101 % of control
- T/C [17]: 106 % of control
- T/C [18]: 102 % of control

SMILES: COc1cc(CCN=Cc2cccc(OC)c2O)c([N+](=O)[O-])cc1OC
- T/C [13]: 93 % of control
- T/C [14]: 93 % of control
- T/C [15]: 93 % of control

SMILES: O=C1CN(CCO)CC(=O)N2Cc3ccccc3CN12
- T/C [10]: 101 % of control
- T/C [11]: 111 % of control
- T/C [12]: 103 % of control

SMILES: Nc1nc(SCc2ccccc2[N+](=O)[O-])c2[nH]cnc2n1
- T/C [17]: 104 % of control
- T/C [19]: 100 % of control
- T/C [18]: 95 % of control
- T/C [20]: 100 % of control
- T/C (dose: 400.0 mg/kg/injection, schedule: Q01DX009 (ip), vehicle: saline with Tween-80): 90 % of control
- T/C [21]: 91 % of control

SMILES: CCC(=O)N(C)C(C)C(=O)OC1CC(=O)N(C)c2cc(cc(OC)c2Cl)CC(CBr)=C/C=C/C(OC)C2(O)CC(OC(=O)N2)C(C)C2OC12C (configuration not stated)
- T/C (dose: 32.0 micrograms/kg/injection, schedule: Q01DX009 (ip), vehicle: saline + alcohol): 152 % of control
- T/C (dose: 64.0 micrograms/kg/injection, schedule: Q01DX009 (ip), vehicle: saline + alcohol): 150 % of control

SMILES: Cc1ccc2cccc(C(=O)N(C)C)c2[n+]1C
- T/C (dose: 31.2 micrograms/kg/injection, schedule: Q04DX002 (ip), vehicle: saline): 100 % of control
- T/C (dose: 62.5 micrograms/kg/injection, schedule: Q04DX002 (ip), vehicle: saline): 103 % of control

SMILES: O=C(Nc1ccccc1)/C(Cl)=C1/Sc2ccccc2NC1=O
- T/C [6]: 104 % of control
- T/C [7]: 107 % of control
- T/C (dose: 240.0 mg/kg/injection, schedule: Q01DX005 (ip), vehicle: saline with Tween-80): 99 % of control

SMILES: ClCOc1cc(Cl)c(OCCl)cc1Cl
- T/C (dose: 50.0 mg/kg/injection, schedule: Q01DX009 (ip), vehicle: Klucel (hydroxypropylcellulose) (HPC)): 116 % of control
- T/C (dose: 100.0 mg/kg/injection, schedule: Q01DX009 (ip), vehicle: Klucel (hydroxypropylcellulose) (HPC)): 113 % of control
- T/C (dose: 200.0 mg/kg/injection, schedule: Q01DX009 (ip), vehicle: Klucel (hydroxypropylcellulose) (HPC)): 101 % of control

SMILES: COC(=O)c1cc(=O)n(-c2ccccc2OC)c(SC)n1
- T/C (dose: 25.0 mg/kg/injection, schedule: Q04DX002 (ip), vehicle: Klucel (hydroxypropylcellulose) (HPC)): 110 % of control
- T/C (dose: 50.0 mg/kg/injection, schedule: Q04DX002 (ip), vehicle: Klucel (hydroxypropylcellulose) (HPC)): 100 % of control
- T/C (dose: 100.0 mg/kg/injection, schedule: Q04DX002 (ip), vehicle: Klucel (hydroxypropylcellulose) (HPC)): 103 % of control

SMILES: NC(=O)Cc1[nH]ccc1C(=O)O
- T/C (dose: 100.0 mg/kg/injection, schedule: Q01DX001 (ip), vehicle: saline with Tween-80): 103 % of control
- T/C (dose: 200.0 mg/kg/injection, schedule: Q01DX001 (ip), vehicle: saline with Tween-80): 97 % of control
- T/C (dose: 400.0 mg/kg/injection, schedule: Q01DX001 (ip), vehicle: saline with Tween-80): 97 % of control

SMILES: O=S(=O)(CS(=O)(=O)Oc1ccccc1)Oc1ccccc1
- T/C [8]: 104 % of control
- T/C [9]: 96 % of control
- T/C (dose: 400.0 mg/kg/injection, schedule: Q04DX002 (ip), vehicle: saline with Tween-80): 98 % of control

SMILES: CCCCC/C(C=O)=C\c1ccccc1
- T/C [19]: 118 % of control
- T/C [20]: 100 % of control
- T/C [21]: 109 % of control
